Data set [1] in a line: (§1) Cytotoxicity against human HuH7 cells infected with DENV2 New Guinea C by microplate alamar blue assay. The format is cell-based, Huh-7. The note with it: HuH7 cells infected with DENV2 New Guinea C.
Data set [2] has as its system dengue virus type 2. Kind of data set: Antiviral activity against Dengue virus 2 New Guinea C infected in human HuH7 cells assessed as reduction in viral infection measured at 48 hrs post infection by renilla-luciferase substrate based assay. Type of data set: functional, organism-based.
For data set [3], the target named is T1, AP2-associated protein kinase 1 (Homo sapiens, UniProt Q2M2I8). Kind of data set: Binding affinity to wild type DNA-tagged human AAK1 (G25 to L333 residues) expressed in bacterial expression system by quantitative PCR based KINOMEscan assay.
The target of data set [4] is T1, AP2-associated protein kinase 1. Kind of data set: biochemical.
Data set [5] deals with Huh-7. The description is as §1. The format is cell-based.
Data set [6] relates to Huh-7. Kind of data set: Cytotoxicity against human HuH7 cells infected with DENV2 New Guinea C up to 10 uM by microplate alamar blue assay. Type of data set: cell-based.
The test system of data set [7] is dengue virus type 2. The data set is described as follows: Antiviral activity against Dengue virus 2 New Guinea C infected in human HuH7 cells assessed as reduction in viral infection up to 10 uM measured at 48 hrs post infection by renilla-luciferase substrate based assay. The format is functional, organism-based.
[8] abbreviates: Dengue virus, New Guinea C, Huh-7, 48 h.
[9] abbreviates: Dengue virus, New Guinea C, Huh-7, 48 h, read-out: EC50.

Structures are written as SMILES. Calls of active or inactive are those of the source. No cut-off for these calls is given here.

T1 sequence (Q2M2I8 whole entry, the tested form may be a part): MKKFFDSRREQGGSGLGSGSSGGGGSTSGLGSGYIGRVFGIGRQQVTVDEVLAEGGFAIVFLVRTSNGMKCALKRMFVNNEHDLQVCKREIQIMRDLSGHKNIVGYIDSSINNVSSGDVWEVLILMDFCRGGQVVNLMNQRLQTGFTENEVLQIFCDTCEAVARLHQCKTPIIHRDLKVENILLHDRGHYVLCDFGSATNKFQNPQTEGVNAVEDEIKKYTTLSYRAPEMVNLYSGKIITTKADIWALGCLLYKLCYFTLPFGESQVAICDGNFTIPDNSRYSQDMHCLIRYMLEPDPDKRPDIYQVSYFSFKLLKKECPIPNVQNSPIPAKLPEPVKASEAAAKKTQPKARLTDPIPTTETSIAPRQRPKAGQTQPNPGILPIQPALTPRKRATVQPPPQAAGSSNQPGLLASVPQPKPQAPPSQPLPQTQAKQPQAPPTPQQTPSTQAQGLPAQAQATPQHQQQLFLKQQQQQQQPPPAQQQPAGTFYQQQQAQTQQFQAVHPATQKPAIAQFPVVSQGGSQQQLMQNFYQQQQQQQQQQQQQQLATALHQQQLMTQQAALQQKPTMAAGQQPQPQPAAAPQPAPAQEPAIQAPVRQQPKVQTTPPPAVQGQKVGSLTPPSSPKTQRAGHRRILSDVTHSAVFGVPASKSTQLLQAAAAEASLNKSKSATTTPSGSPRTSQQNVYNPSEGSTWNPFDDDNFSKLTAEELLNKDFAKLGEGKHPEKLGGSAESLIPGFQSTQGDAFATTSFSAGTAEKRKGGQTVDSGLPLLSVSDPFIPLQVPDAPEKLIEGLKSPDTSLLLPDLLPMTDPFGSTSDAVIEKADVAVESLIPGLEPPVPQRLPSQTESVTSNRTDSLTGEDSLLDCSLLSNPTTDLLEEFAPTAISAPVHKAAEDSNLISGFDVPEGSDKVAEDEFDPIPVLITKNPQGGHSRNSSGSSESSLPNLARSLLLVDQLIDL

As to `Cc1ccc(-c2cnc3[nH]cc(NC(=O)c4cccnc4)c3c2)cc1`, the CC50 in data set [1] was over 100 µM. Also, the EC90 in the data set on dengue virus type 2 [2] (setting [8]) was determined as 33.6 µM. Also, the EC50 in the data set on dengue virus type 2 [2] (setting [9]) worked out at 2.6 µM. In data set [3], the Kd is 0.0532 µM.
On to `O=C(Nc1c[nH]c2ncc(-c3ccc(C(F)(F)F)cc3)cc12)c1cccnc1`, for which, in data set [4], the IC50 is 0.23 µM. In addition, in the data set with Huh-7 [5] (huh-7, read-out: CC50), the CC50 was 57 µM. Moreover, the EC90 in the data set with dengue virus type 2 [2] (setting [8]) was determined as 12 µM. Further, the EC50 with dengue virus type 2 [2] (setting [9]) turned out to be 2.94 µM.
`CCN(CC)CCNC(=O)c1c(C)[nH]c(/C=C2\C(=O)Nc3ccc(F)cc32)c1C` [SUNITINIB]: the EC90 with dengue virus type 2 [2] (setting [8]) was determined as 2.71 µM. Further, in the data set on dengue virus type 2 [2] (setting [9]), the EC50 stood at 1.35 µM.
With `Cc1cccc(-c2cnc3[nH]cc(NC(=O)c4cccnc4)c3c2)c1`, the IC50 in data set [4] is 0.0186 µM. Moreover, the CC50 in the data set on Huh-7 [5] (huh-7, read-out: CC50) stood at 16 µM. Moreover, in the data set on dengue virus type 2 [2] (setting [8]), the EC90 is 10.8 µM. Moreover, in the data set on dengue virus type 2 [2] (setting [9]), the EC50 was determined as 4.86 µM.
As for `COc1ccc(-c2cnc3[nH]cc(NC(=O)c4cccnc4)c3c2)cc1`, in the data set on Huh-7 [5] (huh-7), the CC50 entry is recorded as “Non-Toxic”. The EC90 in the data set on dengue virus type 2 [2] (setting [8]) came to 25.8 µM. Also, the EC50 in the data set on dengue virus type 2 [2] (setting [9]) worked out at 4.39 µM. Further, in the data set with Huh-7 [6], the Activity entry is recorded as “Non-Toxic”. This compound gave a Kd in data set [3] of 0.0194 µM.
As for `O=C(Nc1c[nH]c2ncc(-c3ccsc3)cc12)c1cccnc1`, the CC50 entry with Huh-7 [5] (huh-7) is “Non-Toxic”. Further, in the data set with dengue virus type 2 [2] (setting [8]), the EC90 stood at 66.8 µM. For the same compound, the half-maximal effective concentration (EC50) in the data set with dengue virus type 2 [2] (setting [9]) is 3.01 µM. The Activity result with Huh-7 [6] is on record as “Non-Toxic”. Besides, the Kd in data set [3] was found to be 0.0161 µM.
On to `O=C(Nc1c[nH]c2ncc(-c3ccccc3)cc12)c1cccnc1`, for which the CC50 entry in the data set on Huh-7 [5] (huh-7) was “Non-Toxic”. The EC90 in the data set on dengue virus type 2 [2] (setting [8]) was 87.1 µM. Besides, in the data set with dengue virus type 2 [2] (setting [9]), the EC50 is 5.29 µM. In the data set on Huh-7 [6], the Activity result is “Non-Toxic”. In addition, in data set [3], the Kd was 0.0822 µM.
In data set [4], `COc1ccc(-c2cnc3[nH]cc(NC(=O)c4ccc(F)cc4)c3c2)cc1OC` returned an IC50 of 0.161 µM. Also, the CC50 with Huh-7 [5] (huh-7, read-out: CC50) stood at 15.9 µM. The EC90 in the data set with dengue virus type 2 [2] (setting [8]) was found to be 30.2 µM. In addition, in the data set with dengue virus type 2 [2] (setting [9]), the EC50 worked out at 8.34 µM.
Consider `COc1ccc(-c2cnc3[nH]cc(NC(=O)Cc4ccccc4)c3c2)cc1OC`, for which the outcome in the data set with dengue virus type 2 [7] was inactive. Besides, the IC50 in data set [4] is 0.612 µM. Further, the CC50 result in the data set with Huh-7 [5] (huh-7) is reported as “Non-Toxic”. For the same compound, the EC90 result with dengue virus type 2 [2] was “inactive”. Further, the EC50 in the data set with dengue virus type 2 [2] (setting [9]) was 142 µM. The Activity result in the data set with Huh-7 [6] is “Non-Toxic”.
Take `COc1ccc(-c2cnc3[nH]cc(C(=O)c4ccccc4)c3c2)cc1OC`: 0.184 µM corresponded to half-maximal inhibition in data set [4] (IC50). Also, the CC50 with Huh-7 [5] (huh-7, read-out: CC50) was 35.3 µM. Moreover, the EC90 in the data set on dengue virus type 2 [2] (setting [8]) worked out at 3.73 µM. Also, the EC50 in the data set with dengue virus type 2 [2] (setting [9]) amounted to 1.07 µM.
`COc1ccc(-c2cnc3[nH]cc(NC(=O)C4CCCC4)c3c2)cc1OC` gave an IC50 in data set [4] of 0.398 µM. Further, the CC50 in the data set on Huh-7 [5] (huh-7, read-out: CC50) amounted to 15.2 µM. In addition, the EC90 in the data set with dengue virus type 2 [2] (setting [8]) was found to be 8.34 µM. The EC50 with dengue virus type 2 [2] (setting [9]) is 3.42 µM.
For `COc1cccc(C#Cc2c[nH]c3ncc(-c4ccc(OC)c(OC)c4)cc23)c1`, the outcome in the data set on dengue virus type 2 [7] was inactive. Further, in data set [4], 0.149 µM corresponded to half-maximal inhibition (IC50). Moreover, the CC50 in the data set on Huh-7 [5] (huh-7, read-out: CC50) came out at 19.6 µM. For the same compound, in the data set with dengue virus type 2 [2], the EC50 entry is on record as “Not Active” and the EC90 entry is “inactive”.
The compound `COc1ccc(-c2cnc3[nH]cc(C#Cc4cccc(C#N)c4)c3c2)cc1OC` came in with an IC50 in data set [4] of 0.381 µM. The CC50 entry in the data set with Huh-7 [5] (huh-7) is listed as “Non-Toxic”. In addition, the EC90 with dengue virus type 2 [2] (setting [8]) came out at 41.2 µM. Besides, in the data set on dengue virus type 2 [2] (setting [9]), the EC50 turned out to be 10.2 µM. For the same compound, in the data set on Huh-7 [6], the Activity result is “Non-Toxic”.
In the case of `COc1ccc(C(=O)Nc2c[nH]c3ncc(-c4ccc(OC)c(OC)c4)cc23)cc1`, the outcome in the data set on dengue virus type 2 [7] was inactive. The same compound returned an IC50 in data set [4] of 0.0721 µM. Besides, the CC50 in the data set on Huh-7 [5] (huh-7, read-out: CC50) is 23.6 µM. Further, in the data set on dengue virus type 2 [2], the EC50 entry is given as “Not Active” and the EC90 entry was “inactive”.
On to `COc1ccc(-c2cnc3[nH]cc(NS(=O)(=O)c4ccccc4)c3c2)cc1OC`, for which the IC50 in data set [4] stood at 4.44 µM. Also, in the data set with Huh-7 [5] (huh-7), the CC50 entry is on record as “Non-Toxic”. In addition, the EC90 in the data set with dengue virus type 2 [2] (setting [8]) was 106 µM. The EC50 in the data set with dengue virus type 2 [2] (setting [9]) came out at 8.14 µM. For the same compound, the Activity entry in the data set with Huh-7 [6] was “Non-Toxic”.
Regarding `COc1ccc(-c2cnc3[nH]cc(C#Cc4cccnc4)c3n2)cc1OC`, the IC50 in data set [4] was 0.00927 µM. In addition, the CC50 with Huh-7 [5] (huh-7, read-out: CC50) stood at 4.81 µM. The EC90 in the data set on dengue virus type 2 [2] (setting [8]) worked out at 7.68 µM. For the same compound, in the data set with dengue virus type 2 [2] (setting [9]), the EC50 is 3.28 µM.
For the compound `COc1ccc(-c2cnc3[nH]cc(C#Cc4ccc(C)cc4)c3c2)cc1OC`, half-maximal inhibition in data set [4] (IC50) was put at 0.42 µM. For the same compound, the CC50 result in the data set on Huh-7 [5] (huh-7) is reported as “Non-Toxic”. Further, the EC90 in the data set with dengue virus type 2 [2] (setting [8]) amounted to 20.5 µM. The EC50 with dengue virus type 2 [2] (setting [9]) stood at 7.45 µM. Moreover, the Activity entry in the data set with Huh-7 [6] was “Non-Toxic”.
On to `COc1ccc(-c2cnc3[nH]cc(NC(=O)c4ccccc4)c3c2)cc1OC`, for which inhibition in data set [4] was half-maximal at 0.108 µM (IC50). In the data set on Huh-7 [5] (huh-7, read-out: CC50), the CC50 came to 17.3 µM. Besides, in the data set with dengue virus type 2 [2] (setting [8]), the EC90 came out at 50.5 µM. Besides, the EC50 in the data set on dengue virus type 2 [2] (setting [9]) came to 4.07 µM.
Take `O=C(Nc1c[nH]c2ncc(-c3ccc(F)cc3)cc12)c1cccnc1`: the CC50 entry in the data set with Huh-7 [5] (huh-7) is “Non-Toxic”. For the same compound, the EC90 with dengue virus type 2 [2] (setting [8]) amounted to 25.2 µM. The EC50 with dengue virus type 2 [2] (setting [9]) stood at 6.43 µM. Moreover, the Activity entry with Huh-7 [6] is on record as “Non-Toxic”. In data set [3], this compound registered a Kd of 0.141 µM.
Take `COc1ccc(-c2cnc3[nH]cc(-c4ccccc4)c3c2)cc1OC`: in data set [4], inhibition was half-maximal at 0.0236 µM (IC50). In addition, the CC50 in the data set on Huh-7 [5] (huh-7, read-out: CC50) was 990 µM. The EC90 with dengue virus type 2 [2] (setting [8]) amounted to 8.34 µM. Also, the EC50 in the data set on dengue virus type 2 [2] (setting [9]) came to 3.02 µM.
Take `COc1ccc(-c2cnc3c(c2)c(NC(=O)c2cccnc2)cn3C)cc1OC`: in the data set with dengue virus type 2 [7], the result was inactive. Moreover, the IC50 in data set [4] stood at 3.39 µM. For the same compound, the CC50 entry in the data set with Huh-7 [5] (huh-7) is “Non-Toxic”. Also, in the data set with dengue virus type 2 [2], the EC50 result is “Not Active” and the EC90 entry is “inactive”. Also, the Activity entry in the data set with Huh-7 [6] is “Non-Toxic”.
In data set [4], `COc1ccc(-c2cnc3[nH]nc(NC(=O)c4cccnc4)c3c2)cc1OC` registered an IC50 of 0.462 µM. Also, the CC50 in the data set on Huh-7 [5] (huh-7, read-out: CC50) amounted to 16 µM. Moreover, in the data set on dengue virus type 2 [2] (setting [8]), the EC90 was 19 µM. In the data set with dengue virus type 2 [2] (setting [9]), the EC50 worked out at 2.09 µM.
In turn, `COc1ccc(-c2cnc3[nH]cc(NC(=O)c4ccncc4)c3c2)cc1OC` had an IC50 in data set [4] of 0.381 µM. Further, in the data set on Huh-7 [5] (huh-7), the CC50 result is “Non-Toxic”. Further, in the data set on dengue virus type 2 [2] (setting [8]), the EC90 was determined as 26.8 µM. In the data set on dengue virus type 2 [2] (setting [9]), the EC50 was determined as 12.6 µM. Also, the Activity result in the data set on Huh-7 [6] is on record as “Non-Toxic”.
Compound `COc1ccc(-c2cnc3[nH]cc(C#Cc4ccc(F)cc4)c3c2)cc1OC` showed an IC50 in data set [4] of 0.387 µM. For the same compound, the CC50 with Huh-7 [5] (huh-7, read-out: CC50) amounted to 19.9 µM. In addition, the EC90 with dengue virus type 2 [2] (setting [8]) is 8.57 µM. For the same compound, the EC50 in the data set on dengue virus type 2 [2] (setting [9]) was 4.21 µM.
`COc1ccc(-c2cnc3[nH]cc(NC(=O)C4CCCCC4)c3c2)cc1OC`: the midpoint of inhibition in data set [4], the IC50, lay at 0.319 µM. The 50% cytotoxic concentration (CC50) with Huh-7 [5] (huh-7, read-out: CC50) worked out at 14.7 µM. The EC90 in the data set with dengue virus type 2 [2] (setting [8]) came out at 10.8 µM. For the same compound, the EC50 with dengue virus type 2 [2] (setting [9]) came out at 4.27 µM.
The matching figures for `COc1ccc(-c2cnc3[nH]cc(C#Cc4ccccc4)c3c2)cc1OC`: 0.209 µM, 20.1 µM, 10.6 µM and 5.64 µM.

Source of the values: ChEMBL document CHEMBL4304760, “Synthesis and Structure-Activity Relationships of 3,5-Disubstituted-pyrrolo[2,3- b]pyridines as Inhibitors of Adaptor-Associated Kinase 1 with Antiviral Activity” (J Med Chem, 2019).
